{"source": "patent US20240310368A1", "about": "“DETECTION KIT FOR CATECHOLAMINES AND METABOLITES THEREOF IN PLASMA/URINE AND DETECTION METHOD THEREOF” (Calibra Scientific, Inc., priority 2023, published 2024)", "key": {"[1]": {"test": "pH adjustment ability of urine diluents to standard products and urine samples (pH test papers)", "type": "physicochemical, human", "conditions": "20 μL urine + 480 μL diluent + 50 μL internal standard solution + 500 μL buffer solution", "protocol": "In the present example, standard products of catecholamines in urine and urine samples from different sources (Sample 1 to Sample 6 are urine samples with different pH values) were selected to carry out an experiment. The urine samples were collected within 24 h by the method provided in Example 1, 20 μL of the urine samples were taken, 480 μL of urine diluents shown in Table 30 were added, respectively, then vortex mixing was performed, and 50 μL of an internal standard solution and 500 μL of a buffer solution were sequentially added to obtain urine samples to be tested. Then, pH test papers were used to detect whether the urine samples to be tested were neutral. The pH adjustment ability of different urine diluents to standard products and samples was investigated.\nHowever, some samples are still acidic or alkaline. Thus, ammonium acetate was added on the basis of the formic acid, and different proportions of the formic acid and the ammonium acetate were investigated."}, "[2]": {"test": "Acceleration test of plasma samples with stabilizers (30° C. for 1.5 days, against control plasma stored at −95° C. to −65° C.), LC-MS/MS Area/IS Area", "protocol": "Samples were collected in EDTA-anticoagulant blood collection tubes and then rapidly subjected to […] centrifugation at 2-8° C. to separate plasma. 0.95 mL of the plasma was transferred into centrifuge tubes. After 50 μL of the stabilizer was added for uniform mixing, the plasma samples were stored by refrigeration or freezing.\n• (1) 500 μL of plasma/urine samples to be tested were taken, and 50 μL of the internal standard solution and 500 μL of the buffer solution were sequentially added for vertex mixing to obtain diluted samples. • (2) The magnetic medium composite material suspension was subjected to full vortex treatment to reach a suspension state, and then subsequent operation was performed. • (3) Different reagents were added into wells of a preprocessing plate according to the follow operation: adding 200 μL of the magnetic medium composite material suspension in column 1, adding 500 μL of the balance solution in column 2, adding 850 μL of the diluted samples in column 3, adding 500 μL of the balance solution in column 4, adding 200 μL of a rinsing solution in column 5, and adding 100 μL of the elution solution in column 6. • (4) An extraction operation procedure was carried out, as shown in Table 5.\nEach group of the plasma samples were stored at 30° C. for 1.5 days, and plasma without addition of any compounds stored at −95° C. to −65° C. was used as a control. […] The stabilizing effect of the single-component stabilizers on the plasma samples was investigated.\nThe stabilizers were mixed with plasma (the volume ratio of the stabilizers to plasma samples was 1:19), and high concentration plasma samples and low concentration plasma samples were prepared by the method provided in Example 1.\nWith plasma stored at −95° C. to −65° C. as a control, the above plasma samples were separately stored at 30° C. for 1.5 days to investigate the stability. […]"}}}
{"smiles": "O=CO", "note": "[formic acid]", "values": [{"measurement": "pH adjustment ability of urine diluent to standard products and samples", "setting": "[1]", "value": "uniformly adjust most of samples to neutral"}, {"measurement": "Ratio (Area/IS Area) E", "setting": "[2]; plasma at a high concentration level, plasma containing 0.5% of the acid, control plasma 0.624", "value": 0.295}, {"measurement": "Ratio (Area/IS Area) NE", "setting": "[2]; plasma at a high concentration level, plasma containing 0.5% of the acid, control plasma 1.522", "value": 0}, {"measurement": "Ratio (Area/IS Area) DA", "setting": "[2]; plasma at a high concentration level, plasma containing 0.5% of the acid, control plasma 2.27", "value": 0}, {"measurement": "Ratio (Area/IS Area) E", "setting": "[2]; plasma at a high concentration level, plasma containing 2.0% of the acid, control plasma 0.624", "value": 0}, {"measurement": "Ratio (Area/IS Area) NE", "setting": "[2]; plasma at a high concentration level, plasma containing 2.0% of the acid, control plasma 1.522", "value": 0}, {"measurement": "Ratio (Area/IS Area) DA", "setting": "[2]; plasma at a high concentration level, plasma containing 2.0% of the acid, control plasma 2.27", "value": 0}, {"measurement": "Ratio (Area/IS Area) E", "setting": "[2]; plasma at a low concentration level, plasma containing 0.5% of the acid, control plasma 0.079", "value": 0}, {"measurement": "Ratio (Area/IS Area) NE", "setting": "[2]; plasma at a low concentration level, plasma containing 0.5% of the acid, control plasma 0.219", "value": 0}, {"measurement": "Ratio (Area/IS Area) DA", "setting": "[2]; plasma at a low concentration level, plasma containing 0.5% of the acid, control plasma 0.233", "value": 0}, {"measurement": "Ratio (Area/IS Area) E", "setting": "[2]; plasma at a low concentration level, plasma containing 2.0% of the acid, control plasma 0.079", "value": 0}, {"measurement": "Ratio (Area/IS Area) NE", "setting": "[2]; plasma at a low concentration level, plasma containing 2.0% of the acid, control plasma 0.219", "value": 0}, {"measurement": "Ratio (Area/IS Area) DA", "setting": "[2]; plasma at a low concentration level, plasma containing 2.0% of the acid, control plasma 0.233", "value": 0}, {"measurement": "stabilizing effect on catecholamines in plasma", "setting": "[2]; single components as stabilizers", "value": "no obvious stabilizing effect"}]}
